Assay: xn = mol fraction of the nth substance listed
Conditions: 100 kPa

CCCC[n+]1ccc(C)cc1.[Br-] + CO/N=C(\C(=O)N[C@@H]1C(=O)N2C(C(=O)[O-])=C(CSc3nc(=O)c(=O)[n-]n3C)CS[C@H]12)c1csc(N)n1.[Na+].[Na+] + O
viscosity [mPa·s]
Conditions	288.15 K	293.15 K	298.15 K	303.15 K	308.15 K
x2 = 0, x1 = 0.0007903	1.165	1.024	0.907	0.813	0.734
x2 = 0, x1 = 0.001191	1.176	1.037	0.919	0.824	0.745
x2 = 0, x1 = 0.001595	1.195	1.044	0.926	0.833	0.75
x2 = 0.0008523, x1 = 0.0007896	1.293	1.134	0.998	0.892	0.805
x2 = 0.0008581, x1 = 0.00119	1.321	1.176	1.024	0.918	0.827
x2 = 0.001389, x1 = 0.0007891	1.39	1.219	1.077	0.965	0.863
x2 = 0.001401, x1 = 0.001593	1.423	1.241	1.103	0.989	0.884
x2 = 0.001946, x1 = 0.0007887	1.504	1.31	1.157	1.035	0.931
x2 = 0.001971, x1 = 0.001189	1.511	1.342	1.183	1.055	0.948
x2 = 0.001975, x1 = 0.001592	1.545	1.355	1.192	1.065	0.954
x2 = 0.002543, x1 = 0.0007882	1.632	1.427	1.256	1.12	1.007
x2 = 0.002544, x1 = 0.001591	1.673	1.464	1.295	1.152	1.031
x2 = 0.003109, x1 = 0.001187	1.806	1.567	1.379	1.224	1.096
x2 = 0.003138, x1 = 0.0007878	1.767	1.543	1.364	1.213	1.086
x2 = 0.003151, x1 = 0.00159	1.823	1.589	1.399	1.244	1.113
x2 = 0.003944, x1 = 0.001186	2.024	1.764	1.544	1.369	1.222
x2 = 0.003953, x1 = 0.0007871	1.993	1.729	1.519	1.351	1.208
x2 = 0.003986, x1 = 0.001589	2.106	1.787	1.577	1.395	1.245
x2 = 0.004811, x1 = 0.001588	2.346	2.022	1.772	1.562	1.389
x2 = 0.004834, x1 = 0.0007864	2.266	1.959	1.718	1.524	1.35
x2 = 0.004855, x1 = 0.001185	2.32	2.01	1.757	1.552	1.38
x2 = 0.005536, x1 = 0.0007859	2.52	2.173	1.904	1.68	1.492
x2 = 0.005537, x1 = 0.001184	2.56	2.232	1.937	1.706	1.514
x2 = 0.005566, x1 = 0.001586	2.63	2.267	1.983	1.738	1.544
